Assay results as given in US20220008445A1, “METHODS, COMPOSITIONS, AND KITS FOR TREATING OCULAR DISEASES” (ELOXX PHARMACEUTICALS, priority 2018, published 2022).

Key:
retina [1] = conditions: have been reported; cited from earlier work
USH2A mutation R626X = test: Plasmid-based dual-luciferase read-through assay in HeLa cells, USH2A; assay type: cell-based; conditions: for read-through of the USH2A mutation (in words): FIG. 7, FIG. 9; for dose-dependence of read-through induction, USH2A: FIG. 10
Protocol: (§1) An in vitro assay was then performed to determine if the same dose-dependent suppression could be achieved using other aminoglycosides. This in vitro assay utilized a plasmid-based, dual-luciferase approach. Short sequences that include Usher syndrome nonsense mutations were cloned into the linker region between Renilla and Firefly luciferase reporters, and plasmids were transiently transfected into HeLa cells to evaluate compound read-through. This model permits an early assessment of read-through potential against disease-specific mutations. Read-through activity was evaluated using USH2A and USH1F mutations.
(§2) NB122, NB124, NB84, NB127, NB118, NB128, NB124-MeS, and NB157 were evaluated for their ability to induce read-through on the USH2A mutation R626X and the USH1F PCDH15 mutation R3X.

[2] = tested on: nonsense mutation R262X in the Oca2 gene; test: Read-through after intravitreal injection in albino mice (melanin production); assay type: in vivo, SJL/J mice; conditions: for in vivo read-through as compared to gentamicin: injection to the posterior segment (back of eye); for melanin production in the eye: intravitreal injection, FIGS. 20-21
Protocol: Read-through activity following intravitreal injection of aminoglycosides was evaluated in animal models.
Albino mice (SJL/J mice) harbor the nonsense mutation R262X in the Oca2 gene resulting in an absence of melanin production in melanocytes. This model provides an initial evaluation of compound availability to the back of the eye when administered by intravitreal injection—higher concentrations of melanin correspond to greater read-through activity.
NB122, NB124, NB124-MeS, NB84, NB118, NB127, NB128, and NB157 were evaluated for read-through activity following intravitreal injection into SJL/J mice. FIGS. 20-21 show intravitreal read-through for each compound relative to gentamicin.

[3] = tested on: USH1C nonsense mutation R155X; test: Usher protein expression, USH1C nonsense mutation; assay type: cell-based; conditions: FIG. 17
Protocol: The ability of these compounds to induce protein expression of nonsense mutations associated with Usher syndrome was evaluated using USH1C nonsense mutations.

retina [4] = conditions: for tolerability in gross ophthalmological examination and ERG compared to gentamicin: in vivo
Protocol: Biocompatibility and pharmacokinetic/pharmacodynamic profiles were evaluated for the aminoglycosides NB30, NB54/Compound 37, NB84/ELX-03, NB122/ELX-01, NB124/ELX-02, NB127/ELX-04, NB118/ELX-05, and NB128/ELX-06 in patient-derived cell lines and rodent animal models.
NB122 was well-tolerated compared to gentamicin in gross ophthalmological examination and ERG when administered by intravitreal injection.

[5] = tested on: USH1F PCDH15 mutation R3X; test: Plasmid-based dual-luciferase read-through assay in HeLa cells, USH1F; assay type: cell-based; conditions: for read-through of the USH1F mutation (in words): FIG. 8, FIG. 9; for dose-dependence of read-through induction, USH1F: FIG. 11
Protocol: as §1, §2

[6] = tested on: R213X nonsense mutation in human TP53; test: Protein Based Read-through Assay in DMS114 cells; assay type: cell-based; conditions: Western blot and immunofluorescence
Protocol: Protein Based Read-through Assay. NB122, NB124, NB84, NB118, and NB128 were evaluated for their protein-based read-through potential in DMS114 cells, which harbor a native R213X nonsense mutation in human TP53 as depicted in the scheme shown in FIG. 12. […] A high-throughput immunofluorescence assay measuring p53 localized at the nucleus is shown in FIG. 15 with dose-dependence studies for NB84. Lastly, FIG. 16 provides full dose response curves for NB122, NB124, NB84, NB118, and NB128 with the error bars representing a standard deviation (SD).

USH1 nonsense mutations = test: In vitro cell-based read-through assay in HEK293 cells; conditions: greater at higher concentrations, FIG. 6A-B
Text: In Vitro Cell-Based Assay. NB84 and NB127 were next tested in an in vitro assay using HEK293 cells to determine if similar read-through activity could be achieved in a cellular environment.

[7] = tested on: USH1F nonsense mutations R3X and R245X; test: Cell-Free Read-through Assay; assay type: biochemical; conditions: FIG. 5A-B
Protocol: Cell-Free Read-through Assay. NB84 and NB127 were evaluated for their ability to induce read-through of the USH1F nonsense mutations R3X and R245X in a cell-free assay.

[8] = tested on: healthy New Zealand white rabbits; test: Single-dose intravitreal tolerability, ERG and histology; assay type: in vivo; conditions: rabbit, in vivo
Protocol: Biocompatibility and pharmacokinetic/pharmacodynamic profiles were then evaluated for intravitreal injection of NB118 versus gentamicin. Single-dose tolerability was screened in healthy New Zealand white rabbits and evaluated based on ERG and histology. Dark-adapted oscillatory potential and photopic b-wave amplitudes were measured pre- and nine-days post a single 300 μg or 600 μg injection of aminoglycoside as shown in FIG. 2.
Results were confirmed by a veterinary pathologist.

[9] = Intravitreal pharmacokinetic profile, retina exposure; assay type: in vivo, Dutch-Belted rabbits; conditions: 100 μg intravitreal
Protocol: Pharmacokinetic profiles of NB124 were evaluated using healthy Dutch-Belted rabbits. Rabbits were injected with 100 μg of NB124 and followed for 192 hours. […] Overall, the results support a favorable therapeutic index for intravitreal administration of any of NB124.

| Compound | reported retinal toxicities (retina [1]) | read-through of the USH2A mutation (in words) (USH2A mutation R626X) | dose-dependence of read-through induction, USH2A (USH2A mutation R626X) | in vivo read-through as compared to gentamicin [2] | melanin production in the eye [2] | protein expression versus gentamicin and vehicle control [3] | in vivo ocular tolerance, intravitreal doses (retina [4]) | tolerability in gross ophthalmological examination and ERG compared to gentamicin (retina [4]) | read-through of the USH1F mutation (in words) [5] | dose-dependence of read-through induction, USH1F [5] | nonsense mutation read-through as measured by protein expression (full length p53) [6] | read-through in cells (USH1 nonsense mutations) | read-through as compared to G418 and gentamicin [7] | anatomic changes in retina, H&E stained sections [8] | impact on ERG amplitudes or implicit times [8] | R3X read-through rate ([5]; R3X) | increase over native read-through ([5]; R3X) | time for which retina exposure covers the compound's IC50 [9] | time of peak retina exposure ([9]; followed for 192 hours) |
| --- | --- | --- | --- | --- | --- | --- | --- | --- | --- | --- | --- | --- | --- | --- | --- | --- | --- | --- | --- |
| CN[C@@H]1[C@@H](O)[C@@H](O[C@@H]2[C@@H](O)[C@H](O[C@H]3O[C@H]([C@@H](C)O)[C@@H](O)[C@H](O)[C@H]3N)[C@@H](N)C[C@H]2N)OC[C@]1(C)O [Compound G418, G418] | dose-limiting retinal toxicities |  |  |  |  |  |  |  |  |  |  |  |  |  |  |  |  |  |  |
| C[C@@H](O)C1O[C@H](O[C@@H]2C(N)C[C@@H](NC(=O)[C@@H](O)CCN)[C@@H](O)C2O[C@@H]2O[C@H](CN)[C@H](O)C2O)[C@@H](N)C(O)[C@@H]1O (stereo partly drawn) [NB84] |  | significant read-through | dose-dependence | significant read-through | dose-dependent increase | increased protein expression | up to 600 μg/mL | well-tolerated | significant read-through | dose-dependence | dose-dependent | significant read-through | significant read-through |  |  |  |  |  |  |
| CC(N)C1OC(OC2C(O)C(N)CC(N)C2OC2OC(CO)C(O)C(O)C2N)C(O)C1O (stereo not drawn) [NB118] |  | significant read-through | dose-dependence | significant read-through | dose-dependent increase |  | up to 600 μg/mL | well-tolerated | significant read-through | dose-dependence | dose-dependent |  |  | did not produce adverse anatomic changes | minimal to no impact |  |  |  |  |
| CC(N)C1OC(OC2C(O)C(NC(=O)C(O)CCN)CC(N)C2OC2OC(CO)C(O)C(O)C2N)C(O)C1O (stereo not drawn) [NB122] |  |  | dose-dependence | significant read-through | dose-dependent increase | increased protein expression | up to 600 μg/mL | well-tolerated |  | dose-dependence | dose-dependent |  |  |  |  | 2.7% | 2.5 fold |  |  |
| CC(N)C1OC(OC2C(O)C(NS(C)(=O)=O)CC(N)C2OC2OC(C(C)O)C(O)C(O)C2N)C(O)C1O (stereo not drawn) [NB124-MeS] |  | significant read-through |  | significant read-through | dose-dependent increase |  |  | well-tolerated | significant read-through |  |  |  |  |  |  |  |  |  |  |
| C[C@H](N)[C@H]1O[C@@H](O[C@@H]2[C@@H](O)[C@H](N)C[C@H](N)[C@H]2O[C@H]2O[C@H]([C@@H](C)O)[C@@H](O)[C@H](O)[C@H]2N)[C@H](O)[C@@H]1O [NB124] |  |  | dose-dependence | significant read-through | dose-dependent increase | increased protein expression |  | well-tolerated |  | dose-dependence | dose-dependent |  |  |  |  |  |  | over 48 hours | 3 h |
| CC(N)C1OC(OC2C(O)C(NC(=O)C(O)CCN)CC(N)C2OC2OC(C(C)O)C(O)C(O)C2N)C(O)C1O (stereo not drawn) [NB127] |  | significant read-through |  | significant read-through | dose-dependent increase | increased protein expression |  | well-tolerated | significant read-through |  |  | significant read-through | significant read-through |  |  |  |  |  |  |
| CC(N)C1OC(OC2C(O)C(NC(=O)C(O)CCN)CC(N)C2OC2OC(C(C)O)C(O)C(O)C2N)C(O)C1O (stereo not drawn) [NB128] |  | significant read-through | dose-dependence | significant read-through | dose-dependent increase |  |  | well-tolerated | significant read-through | dose-dependence | dose-dependent |  |  |  |  |  |  |  |  |
| CCCNC1CC(N)C(OC2OC(C(C)O)C(O)C(O)C2N)C(OC2OC(CN)C(O)C2O)C1O (stereo not drawn) [NB147] |  |  |  | significant read-through |  |  |  | well-tolerated |  |  |  |  |  |  |  |  |  |  |  |
| C[C@H](N)[C@H]1O[C@@H](O[C@@H]2C(O)[C@H](N)CC(N)[C@H]2O[C@H]2OC([C@H](O)CO)[C@@H](O)[C@H](O)C2N)C(O)[C@H]1O (stereo partly drawn) [NB157] |  | significant read-through |  |  | dose-dependent increase |  |  |  | significant read-through |  |  |  |  |  |  |  |  |  |  |
